Values quoted from earlier work, collected in patent US7700778B2, “Acylated piperidine derivatives as melanocortin-4 receptor agonists” (Merck Sharp & Dohme Corp., priority 2001, dated 2010).

Assays:
[1] = in vivo, po
[2] = system: males with psychogenic erectile dysfunction

Row | Compound | duration of effect (men; after an oral dose) | onset of action (men; after an oral dose) | share of men/patients in whom effective (adequate response) (men; oral) | absorption into the systemic circulation [1] | duration of action ([2]; in vivo) | time to onset of erection ([2]; in vivo) | response rate ([2]; injected intramuscularly or subcutaneously)
1 | Cc1ccc(N(CC2=NCCN2)c2cccc(O)c2)cc1 [phentolamine] | 2 h | 5 to 30 min | 35-40% | – | – | – | –
2 | Ac-Nle-c[Asp-His-DPhe-Arg-Trp-Lys]-NH2 [MT-II] | – | – | – | not absorbed into the systemic circulation | approximately 2.5 hours | 10 to 20 min | 75%
